The source made the active and inactive calls. The calls are words filed in the database; no cut-off is given here. Some results are limits rather than exact numbers.

Drawing on ChEMBL document CHEMBL4387783, “Bioactive triterpene glycosides from the fruit of Stauntonia hexaphylla and insights into the molecular mechanism of its inflammatory effects” (Bioorg Med Chem Lett, 2019), this text covers IC50, inhibition and viability for 27 molecules.

Data set [1] has as its system RAW264.7. The experiment in a line: Antiinflammatory activity in mouse RAW264.7 cells assessed as inhibition of LPS-induced nitirc oxide production preincubated for 1 hr followed by LPS-stimulation and measured after 18 hrs by Griess assay. The class given is functional, cell-based. A general note: Nitrite, measured by Griess reagent, commonly stands in for NO production.

For data set [2], the system named is RAW264.7. The experiment in a line: Antiinflammatory activity in mouse RAW264.7 cells assessed as inhibition of LPS-induced COX2 expression at 1 to 5 uM preincubated for 1 hr followed by LPS-stimulation and measured after 16 hrs by Western blot analysis. It counts as functional, cell-based. In general terms: A western blot detects proteins with antibodies after separation by electrophoresis.

Data set [3] concerns RAW264.7. The experiment in a line: Antiinflammatory activity in mouse RAW264.7 cells assessed as inhibition of LPS-induced iNOS expression at 1 to 5 uM preincubated for 1 hr followed by LPS-stimulation and measured after 16 hrs by Western blot analysis. It counts as functional, cell-based.
A short description of data set [4]: Cytotoxicity against LPS-stimulated mouse RAW264.7 cells assessed as cell viability at antiinflammatory IC50 preincubated for 1 hr followed by LPS-stimulation and measured after 18 hrs by MTT assay relative to control. It counts as cell-based. The note with it: LPS-stimulated RAW264.7 cells, read-out: Activity. Background: Tetrazolium assays rely on reduction of a dye to a coloured formazan, in cell work by metabolically active cells.

In the case of `COc1cc(CCC(=O)O)ccc1O` [DIHYDROFERULIC ACID], in the data set on RAW264.7 [1], the IC50 (in general, the concentration at which inhibition is half-maximal) is greater than 50 µM.

As for `C[C@@H]1C[C@H]2[C@@H]3CCC4=CC(=O)C=C[C@]4(C)[C@@]3(F)[C@@H](O)C[C@]2(C)[C@@]1(O)C(=O)CO` [DEXAMETHASONE], the IC50 in the data set on RAW264.7 [1] was 0.01 µM.

On to `CC1(C)CC[C@]2(C(=O)O)CC[C@]3(C)C(=CC[C@@H]4[C@@]5(C)CC[C@H](O[C@@H]6O[C@H](CO)[C@@H](O)[C@H](O)[C@H]6O[C@@H]6OC[C@H](O)[C@H](O)[C@H]6O)C(C)(C)[C@@H]5CC[C@]43C)[C@@H]2C1`, for which the IC50 with RAW264.7 [1] is 3.1 to 3.13 µM.

Turning to `C[C@@H]1O[C@@H](O[C@H]2[C@H](O[C@H]3CC[C@@]4(C)[C@@H](CC[C@]5(C)[C@@H]4CC=C4[C@@H]6CC(C)(C)CC[C@]6(C(=O)O)CC[C@]45C)[C@]3(C)CO)O[C@H](CO)[C@@H](O)[C@@H]2O)[C@H](O)[C@H](O)[C@H]1O`, the IC50 in the data set with RAW264.7 [1] lay in the range of 4.2 to 4.21 µM.

For `C[C@@H]1O[C@@H](O[C@H]2[C@H](O)[C@@H](O)[C@H](OC[C@H]3O[C@@H](OC(=O)[C@]45CCC(C)(C)C[C@H]4C4=CC[C@@H]6[C@@]7(C)CC[C@H](O[C@@H]8OC[C@H](O)[C@H](O)[C@H]8O[C@@H]8O[C@H](CO)[C@@H](O)[C@H](O)[C@H]8O)C(C)(C)[C@@H]7CC[C@@]6(C)[C@]4(C)CC5)[C@H](O)[C@@H](O)[C@@H]3O)O[C@@H]2CO)[C@H](O)[C@H](O)[C@H]1O`, the IC50 with RAW264.7 [1] was greater than 50 µM.

Regarding `C[C@@H]1O[C@@H](O[C@H]2[C@H](O[C@H]3CC[C@@]4(C)[C@@H](CC[C@]5(C)[C@@H]4CC=C4[C@@H]6CC(C)(C)CC[C@]6(C(=O)O[C@@H]6O[C@H](CO[C@@H]7O[C@H](CO)[C@@H](O[C@@H]8O[C@@H](C)[C@H](O)[C@@H](O)[C@H]8O)[C@H](O)[C@H]7O)[C@@H](O)[C@H](O)[C@H]6O)CC[C@]45C)[C@]3(C)CO)OC[C@H](O)[C@@H]2O)[C@H](O)[C@H](O)[C@H]1O` [KALOPANAXSAPONIN B], in the data set with RAW264.7 [1], the half-inhibitory concentration (IC50) was greater than 50 µM.

Regarding `C[C@@H]1O[C@@H](O[C@H]2[C@H](O[C@H]3CC[C@]4(C)[C@H]5CC=C6[C@@H]7CC(C)(C)CC[C@]7(C(=O)O)CC[C@@]6(C)[C@]5(C)CC[C@H]4C3(C)C)OC[C@H](O[C@@H]3O[C@H](CO)[C@@H](O)[C@H](O)[C@H]3O)[C@@H]2O)[C@H](O)[C@H](O)[C@H]1O[C@@H]1O[C@H](CO)[C@@H](O)[C@H](O)[C@H]1O`, in the data set on RAW264.7 [1], the IC50 is greater than 50 µM.

In the case of `C[C@@H]1O[C@@H](O[C@H]2[C@H](O[C@H]3CC[C@]4(C)[C@H]5CC=C6[C@@H]7CC(C)(C)CC[C@]7(C(=O)O[C@@H]7O[C@H](CO)[C@@H](O)[C@H](O)[C@H]7O)CC[C@@]6(C)[C@]5(C)CC[C@H]4C3(C)C)OC[C@H](O)[C@@H]2O)[C@H](O)[C@H](O)[C@H]1O`, the IC50 in the data set with RAW264.7 [1] is greater than 50 µM.

Turning to `CC1(C)CC[C@]2(C(=O)O)CC[C@]3(C)C(=CC[C@@H]4[C@@]5(C)CC[C@@H](O)[C@@](C)(CO)[C@@H]5CC[C@]43C)[C@@H]2C1`, the IC50 with RAW264.7 [1] is greater than 50 µM.

For the molecule `C[C@@H]1O[C@@H](O[C@H]2[C@H](O[C@H]3CC[C@]4(C)[C@H]5CC=C6[C@@H]7CC(C)(C)CC[C@]7(C(=O)O)CC[C@@]6(C)[C@]5(C)CC[C@H]4C3(C)C)OC[C@H](O)[C@@H]2O)[C@H](O)[C@H](O)[C@H]1O`, the IC50 in the data set on RAW264.7 [1] was in the range of 1.3 to 1.33 µM. For the same molecule, the inhibition entry with RAW264.7 [2] and in the data set on RAW264.7 [3] was “Active” throughout.

`CC1(C)CC[C@]2(C(=O)O)CC[C@]3(C)C(=CC[C@@H]4[C@@]5(C)CC[C@H](O[C@@H]6O[C@H](CO)[C@@H](O)[C@H](O)[C@H]6O)[C@@](C)(CO)[C@@H]5CC[C@]43C)[C@@H]2C1` [Hederagenin-3-O-beta-D-glucopyranoside]: the IC50 in the data set on RAW264.7 [1] amounted to 13.4 µM.

As for `C[C@@H]1O[C@@H](O[C@H]2[C@H](O[C@H]3CC[C@]4(C)[C@H]5CC=C6[C@@H]7CC(C)(C)CC[C@]7(C(=O)O)CC[C@@]6(C)[C@]5(C)CC[C@H]4C3(C)C)O[C@H](CO)[C@@H](O)[C@@H]2O)[C@H](O)[C@H](O)[C@H]1O`, the IC50 in the data set on RAW264.7 [1] stood at 1.5 µM. Besides, the viability at 18 h in data set [4] was less than 60%.

For `CC1(C)[C@H](O)CC[C@]2(C)[C@H]3CC=C4[C@@H]5C[C@](C)(CO)CC[C@]5(C(=O)O)CC[C@@]4(C)[C@]3(C)CC[C@@H]12`, the concentration for half-maximal inhibition (IC50) in the data set on RAW264.7 [1] was greater than 50 µM.

Consider `CC1=CC(=O)CC(C)(C)[C@@]1(O)/C=C/[C@H](C)O`, for which, in the data set on RAW264.7 [1], the IC50 is greater than 50 µM.

`COc1cc(O)cc(OC)c1O[C@@H]1O[C@H](CO)[C@@H](O)[C@H](O)[C@H]1O` [LEONURISIDE]: in the data set on RAW264.7 [1], the IC50 is greater than 50 µM.

In the case of `CC1(C)CC[C@]2(C(=O)O[C@@H]3O[C@H](CO[C@@H]4O[C@H](CO)[C@@H](O)[C@H](O)[C@H]4O)[C@@H](O)[C@H](O)[C@H]3O)CC[C@]3(C)C(=CC[C@@H]4[C@@]5(C)CC[C@H](O[C@@H]6OC[C@H](O)[C@H](O)[C@H]6O[C@@H]6O[C@H](CO)[C@@H](O)[C@H](O)[C@H]6O)C(C)(C)[C@@H]5CC[C@]43C)[C@@H]2C1`, in the data set with RAW264.7 [1], the IC50 was greater than 50 µM.

In the case of `C[C@@H]1O[C@@H](O[C@H]2[C@H](O)[C@@H](O)[C@H](OC[C@H]3O[C@@H](OC(=O)[C@]45CCC(C)(C)C[C@H]4C4=CC[C@@H]6[C@@]7(C)CC[C@H](O)[C@@](C)(CO)[C@@H]7CC[C@@]6(C)[C@]4(C)CC5)[C@H](O)[C@@H](O)[C@@H]3O)O[C@@H]2CO)[C@H](O)[C@H](O)[C@H]1O` [KIZUTA CIRENSENOSIDE O SAPONIN K3], the IC50 with RAW264.7 [1] was greater than 50 µM.

`CC1(C)CC[C@]2(C(=O)O[C@@H]3O[C@H](CO[C@@H]4O[C@H](CO)[C@@H](O)[C@H](O)[C@H]4O)[C@@H](O)[C@H](O)[C@H]3O)CC[C@]3(C)C(=CC[C@@H]4[C@@]5(C)CC[C@H](O[C@@H]6O[C@H](CO)[C@@H](O)[C@H](O)[C@H]6O)C(C)(C)[C@@H]5CC[C@]43C)[C@@H]2C1`: the IC50 in the data set on RAW264.7 [1] is greater than 50 µM.

`C[C@@H]1O[C@@H](O[C@H]2[C@H](O)[C@@H](O)[C@H](OC[C@H]3O[C@@H](OC(=O)[C@]45CCC(C)(C)C[C@H]4C4=CC[C@@H]6[C@@]7(C)CC[C@H](O[C@@H]8OC[C@H](O)[C@H](O)[C@H]8O)[C@@](C)(CO)[C@@H]7CC[C@@]6(C)[C@]4(C)CC5)[C@H](O)[C@@H](O)[C@@H]3O)O[C@@H]2CO)[C@H](O)[C@H](O)[C@H]1O` [CAULOSIDE D]: the IC50 in the data set with RAW264.7 [1] fell in the range of 3.68 to 3.7 µM. The viability at 18 h in data set [4] was less than 60%.

Take `C[C@@H]1O[C@@H](O[C@H]2[C@H](O[C@H]3CC[C@]4(C)[C@H]5CC=C6[C@@H]7CC(C)(C)CC[C@]7(C(=O)O[C@@H]7O[C@H](CO[C@@H]8O[C@H](CO)[C@@H](O[C@@H]9O[C@@H](C)[C@H](O)[C@@H](O)[C@H]9O)[C@H](O)[C@H]8O)[C@@H](O)[C@H](O)[C@H]7O)CC[C@@]6(C)[C@]5(C)CC[C@H]4C3(C)C)OC[C@H](O)[C@@H]2O)[C@H](O)[C@H](O)[C@H]1O` [HEDERASAPONIN B]: in the data set on RAW264.7 [1], the IC50 was greater than 50 µM.

Consider `COC(=O)C(CC(=O)O)OC(=O)/C=C/c1ccc(O)c(O)c1` (stereo not drawn), for which the concentration for half-maximal inhibition (IC50) with RAW264.7 [1] was greater than 50 µM.

Take `CC1(C)CC[C@]2(C(=O)O)CC[C@]3(C)C(=CC[C@@H]4[C@@]5(C)CC[C@H](O[C@@H]6OC[C@H](O)[C@H](O)[C@H]6O)C(C)(C)[C@@H]5CC[C@]43C)[C@@H]2C1`: the IC50 in the data set with RAW264.7 [1] is 4 to 4.04 µM.

`CC1(C)CC[C@]2(C(=O)O[C@@H]3O[C@H](CO[C@@H]4O[C@H](CO)[C@@H](O)[C@H](O)[C@H]4O)[C@@H](O)[C@H](O)[C@H]3O)CC[C@]3(C)C(=CC[C@@H]4[C@@]5(C)CC[C@H](O[C@@H]6OC[C@H](O)[C@H](O)[C@H]6O)[C@@](C)(CO)[C@@H]5CC[C@]43C)[C@@H]2C1`: in the data set on RAW264.7 [1], the 50% inhibitory concentration (IC50) is greater than 50 µM.

For `CC1(C)CC[C@]2(C(=O)O)CC[C@]3(C)C(=CC[C@@H]4[C@@]5(C)C[C@@H](O)[C@H](O)[C@@](C)(CO)[C@@H]5CC[C@]43C)[C@@H]2C1` [ARJUNOLIC ACID], in the data set on RAW264.7 [1], the IC50 worked out at 15.2 µM.

On to `C[C@@H]1O[C@@H](O[C@H]2[C@H](O[C@H]3CC[C@@]4(C)[C@@H](CC[C@]5(C)[C@@H]4CC=C4[C@@H]6CC(C)(C)CC[C@]6(C(=O)O)CC[C@]45C)[C@]3(C)CO)OC[C@H](O)[C@@H]2O)[C@H](O)[C@H](O)[C@H]1O` [ALPHA-HEDERIN], for which the IC50 in the data set on RAW264.7 [1] was determined as 1.1 µM. Further, the inhibition result in the data set on RAW264.7 [2] and in the data set with RAW264.7 [3] was “Active” in each case.

As for `CC1(C)CC[C@]2(C(=O)O)CC[C@]3(C)C(=CC[C@@H]4[C@@]5(C)CC[C@H](O[C@@H]6OC[C@H](O)[C@H](O)[C@H]6O)[C@@](C)(CO)[C@@H]5CC[C@]43C)[C@@H]2C1`, in the data set on RAW264.7 [1], the IC50 lay in the range of 2.25 to 2.3 µM.

In the case of `C[C@@H]1O[C@@H](O[C@H]2[C@H](O)[C@@H](O)[C@H](OC[C@H]3O[C@@H](OC(=O)[C@]45CCC(C)(C)C[C@H]4C4=CC[C@@H]6[C@@]7(C)CC[C@H](O[C@@H]8OC[C@H](O)[C@H](O[C@@H]9OC[C@H](O)[C@H](O)[C@H]9O)[C@H]8O)C(C)(C)[C@@H]7CC[C@@]6(C)[C@]4(C)CC5)[C@H](O)[C@@H](O)[C@@H]3O)O[C@@H]2CO)[C@H](O)[C@H](O)[C@H]1O`, the IC50 in the data set with RAW264.7 [1] was greater than 50 µM.
